Reference: PMC7556816, “Structural and mechanistic analysis of ATPase inhibitors targeting mycobacterial DNA gyrase” (Journal of Antimicrobial Chemotherapy, 2020)

Tested on: M. tuberculosis gyrase, GyrB Arg141 mutants
Assay type: biochemical, Mycobacterium tuberculosis

Row | Structure (SMILES) | inhibition of supercoiling of Arg141 mutant gyrase
1 | CNc1cc(F)cc2c1[nH]c1nc(Oc3cnc(C)nc3)nc(N3C[C@@H]4[C@@H](N)[C@@H]4C3)c12 [Redx03863] | susceptible to inhibition
2 | CO[C@@H]1[C@@H](OC(N)=O)[C@@H](O)[C@H](Oc2ccc3c(O)c(NC(=O)c4ccc(O)c(CC=C(C)C)c4)c(=O)oc3c2C)OC1(C)C [novobiocin, reference compound] | at least partially inhibited
